Assay results published in EP2012764B1, “PHARMACEUTICAL COMBINATION COMPRISING 3-(3-DIMETHYLAMINO-1-ETHYL-2-METHYL-PROPYL) -PHENOL AND PARACETAMOL” (Grünenthal GmbH, priority 2006, dated 2007).

Tested on: inflammatory pain
Assay: Randall-Selitto test in rats (carrageenin-induced paw oedema, pressure at vocalisation, %MPE; isobolographic analysis)
Type: in vivo, rat
Method: The weight ratios of the components (a) and (b) that will lead to a supra-additive effect (synergistic effect) of the inventive pharmaceutical composition may be determined via the test of Randall and Selitto as described in Arch. Int. Pharmacodyn., 1957, 111: 409 to 419, which is a model for inflammatory pain. The respective part of the literature is hereby incorporated by reference and forms part of the present disclosure.
By means of injection of 0.1 ml of Carrageenin-suspension ventrally into a hind paw of a rat an oedema is induced, on which pain is generated 4 hours later by continuously increasing pressure with a stamp (2 mm tip diameter). The antinociceptive and antihyperalgesic activity of the tested substance is determined at different points in time after administration of the substance. The measured value to be determined and at the same time also the end point of the pain test is the pressure at which the vocalisation reaction of the rat occurs. The percentage maximum possible effect (%MPE) is calculated. The maximum pressure of the stamp is 250 g. The group size is n = 10.
The interactions studies presented herein were performed using equieffective doses of the two components, calculated from the ratio of the respective ED50 values of the components if administered alone.
The application route was intravenous (i.v.) for (1R,2R)-3-(3-Dimethylamino-1-ethyl-2-methyl-propyl)-phenol (A) and intraperitoneal (i.p.) for Paracetamol. […] According to their respective timepoint of peak effect, (1R,2R)-3-(3-Dimethylamino-1-ethyl-2-methyl-propyl)-phenol was applied 15 min and Paracetamol 120 min before timepoint of measurement of the interaction-experiments (i. e. Paracetamol was applied 105 min before (1R,2R)-3-(3-Dimethylamino-1-ethyl-2-methyl-propyl)-phenol, respectively). Thus, the time point of ED50 calculation of the combination corresponds to the timepoint of the peak effect of the respective compound.

CC[C@@H](c1cccc(O)c1)[C@@H](C)CN(C)C [A, (1R,2R)-3-(3-Dimethylamino-1-ethyl-2-methyl-propyl)-phenol]
timepoint of peak effect (A alone, i.v., timepoint of first measurement): 15 min p. appl.

CC(=O)Nc1ccc(O)cc1 [Paracetamol]
timepoint of peak effect (Paracetamol alone, i.p.): 120 min p. appl.
ED50 (confidence interval) (Paracetamol alone, i.p., 120 min p. appl. (peak effect), rat, n = 10, 120 min): 189,9 (181,3-198,4) mg/kg
ED50 (Rattus norvegicus, ip, 2 h, Paracetamol alone, i.p., 120 min p. appl. (peak effect), rat, n = 10, read-out: ED50 (confidence interval)): 190 mg/kg
